These results are taken from US20230322717A1, “SOLID FORM OF PYRAZINE SUBSTITUTED NICOTINAMIDE, AND PREPARATION AND USE THEREOF” (Shenzhen TargetRx, Inc., priority 2020, published 2023).

What all share (format): physicochemical
A short description of data set [1]: Stability study of the crystal form I of compound A and the crystal form I of compound A p-toluenesulfonate (HPLC, XRPD). The method, then:
A certain amount of samples of the crystal form I of compound A and the crystal form I of compound A p-toluenesulfonate (Batch No.: PTSA-A1) were placed in a stability test chamber, and kept at 40° C./75%RH and 60° C. for 7 days, respectively. The samples were tested by HPLC and XRPD at various time points.

Data set [2] can be described thus: Solubility study in SGF, FaSSIF and FeSSIF (HPLC of filtrate, XRPD of solid). The following applies: 37° C.; for Crystal form: XRPD of solid. As for the experimental part: The solubilities of the crystal form I of compound A and the crystal form I of compound A p-toluenesulfonate in SGF (simulated gastric fluid), FaSSIF (fasted state simulated intestinal fluid) and FeSSIF (fed state simulated intestinal fluid) were studied.
The solubilities of samples in SGF, FaSSIF and FeSSIF at 37° C. for 24 hours were determined. 40 mg of the sample was placed in a sample bottle, and 1.5 mL of solvent was added. The mixture was mixed well, and shaken on a shaker at 200 rpm for 24 hours. The suspension was filtered at 0.5, 2 and 24 hours. The filtrate was analyzed by HPLC, and the solid was tested by XRPD.

Data set [3] is described as follows: Dynamic moisture adsorption and desorption analysis (DVS). The following applies: for crystal form after DVS test (XRPD): before and after DVS test; for hygroscopicity (DVS): moisture range 0% to 90%. As for the experimental part:
The instrument model used for dynamic moisture adsorption and desorption analysis was IGA Sorp (Hidentity Isochema). The samples were measured in a gradient mode with a moisture range of 0% to 90%, wherein the humidity increment of each gradient was 10%.

The nature of data set [4]: Stability study of the crystal form VI of compound A (high temperature, high humidity, light).

SMILES strings stand for the structures. Values after ≈ are worked out from the molar mass of the structure shown.

As to `Cc1ccc(S(=O)(=O)O)cc1.O=C(Nc1ccc(OC(F)(F)Cl)cc1)c1cnc(N2CC[C@@H](F)C2)c(-c2cnccn2)c1`, the Purity stood at 97.9% in data set [1] (40° C./75% RH, Day 0, HPLC); 97.9% in data set [1] (40° C./75% RH, Day 3, HPLC); 97.9% in data set [1] (40° C./75% RH, Day 7, HPLC); 97.9% in data set [1] (60° C., Day 0, HPLC); 97.9% in data set [1] (60° C., Day 3, HPLC); 97.9% in data set [1] (60° C., Day 7, HPLC). Further, the Crystal form result is reported as “Initial crystal form” in data set [1] (40° C./75% RH, Day 3, XRPD); “Initial crystal form” in data set [1] (40° C./75% RH, Day 7, XRPD); “Initial crystal form” in data set [1] (60° C., Day 3, XRPD); “Initial crystal form” in data set [1] (60° C., Day 7, XRPD); “Changed” in data set [2] (FaSSIF, 0.5 h); “Changed” in data set [2] (FaSSIF, 2 h). Further, the Crystal form result was “Changed” in data set [2] (FaSSIF, 24 h); “Changed” in data set [2] (FeSSIF, 0.5 h); “Changed” in data set [2] (FeSSIF, 2 h); “Changed” in data set [2] (FeSSIF, 24 h); “Initial crystal form” in data set [2] (SGF, 0.5 h); “Initial crystal form” in data set [2] (SGF, 2 h). Moreover, the Crystal form result in data set [2] (SGF, 24 h) is on record as “Changed”. In addition, the “Solubility” value was determined as 4.5 µg/mL in data set [2] (FaSSIF, 0.5 h); 3.7 µg/mL in data set [2] (FaSSIF, 2 h); 16 µg/mL in data set [2] (FaSSIF, 24 h); 100 µg/mL in data set [2] (FeSSIF, 0.5 h); 93 µg/mL in data set [2] (FeSSIF, 2 h); 180 µg/mL in data set [2] (FeSSIF, 24 h). For the same compound, the “Solubility” value amounted to 97 µg/mL in data set [2] (SGF, 0.5 h); 67 µg/mL in data set [2] (SGF, 2 h); 45 µg/mL in data set [2] (SGF, 24 h). Besides, the pH in data set [2] (FaSSIF, 0.5 h) was determined as 6.38; in data set [2] (FaSSIF, 2 h), 3.48; in data set [2] (FaSSIF, 24 h), 1.91; in data set [2] (FeSSIF, 0.5 h) it was 4.53; in data set [2] (FeSSIF, 2 h), 4.51; in data set [2] (FeSSIF, 24 h), 4.50. The pH in data set [2] (SGF, 0.5 h) stood at 1.23; in data set [2] (SGF, 2 h) it was 1.19; in data set [2] (SGF, 24 h), 1.18.

`O=C(Nc1ccc(OC(F)(F)Cl)cc1)c1cnc(N2CC[C@@H](F)C2)c(-c2cnccn2)c1.O=S(=O)(O)c1ccccc1` [(R)-N-(4-(chlorodifluoromethoxy)phenyl)-6-(3-fluoropyrrolidin-1-yl)-5-(pyrazin-2-yl)nicotinamide benzenesulfonate]: the water absorption result in data set [3] (0-60%RH) is “about 0.4%”; in data set [3] (0-90%RH), “about 1.5%”. The “crystal form after DVS test (XRPD)” value in data set [3] is given as “not changed”. In data set [3], the “hygroscopicity (DVS)” value is “slightly hygroscopic”.

`Br.O=C(Nc1ccc(OC(F)(F)Cl)cc1)c1cnc(N2CC[C@@H](F)C2)c(-c2cnccn2)c1` [(R)-N-(4-(chlorodifluoromethoxy)phenyl)-6-(3-fluoropyrrolidin-1-yl)-5-(pyrazin-2-yl)nicotinamide hydrobromide]: the water absorption entry in data set [3] (0-80%RH) was “about 0.67%”. Moreover, in data set [3], the “crystal form after DVS test (XRPD)” value is “not changed” and the “hygroscopicity (DVS)” value was “slightly hygroscopic”.

Take `Cl.O=C(Nc1ccc(OC(F)(F)Cl)cc1)c1cnc(N2CC[C@@H](F)C2)c(-c2cnccn2)c1` [(R)-N-(4-(chlorodifluoromethoxy)phenyl)-6-(3-fluoropyrrolidin-1-yl)-5-(pyrazin-2-yl)nicotinamide hydrochloride]: the water absorption entry in data set [3] (0-40%RH (relative humidity)) is listed as “about 0.4%”. In data set [3] (0-90%RH), the water absorption result is reported as “about 2.8%”. Besides, in data set [3], the “crystal form after DVS test (XRPD)” value is given as “not changed” and the “hygroscopicity (DVS)” value was “slightly hygroscopic”.

Consider `O=C(Nc1ccc(OC(F)(F)Cl)cc1)c1cnc(N2CC[C@@H](F)C2)c(-c2cnccn2)c1` [The crystal form I of compound A], for which the Purity in data set [1] (40° C./75% RH, Day 0, HPLC) worked out at 96.1%; in data set [1] (40° C./75% RH, Day 3, HPLC) it was 97.1%; in data set [1] (40° C./75% RH, Day 7, HPLC) it was 97.1%; in data set [1] (60° C., Day 0, HPLC), 96.1%; in data set [1] (60° C., Day 3, HPLC) it was 96.7%; in data set [1] (60° C., Day 7, HPLC), 97.1%. Further, the Crystal form result is reported as “Initial crystal form” in data set [1] (40° C./75% RH, Day 3, XRPD); “Initial crystal form” in data set [1] (40° C./75% RH, Day 7, XRPD); “Initial crystal form” in data set [1] (60° C., Day 3, XRPD); “Initial crystal form” in data set [1] (60° C., Day 7, XRPD); “Initial crystal form” in data set [2] (FaSSIF, 0.5 h); “Changed” in data set [2] (FaSSIF, 2 h). Also, the Crystal form entry in data set [2] (FaSSIF, 24 h) is given as “Changed”; in data set [2] (FeSSIF, 0.5 h), “Initial crystal form”; in data set [2] (FeSSIF, 2 h), “Changed”; in data set [2] (FeSSIF, 24 h), “Changed”; in data set [2] (SGF, 0.5 h) it was “Initial Crystal form”; in data set [2] (SGF, 2 h), “Changed”. Further, the Crystal form result in data set [2] (SGF, 24 h) is listed as “Changed”. For the same compound, the “Solubility” value in data set [2] (FaSSIF, 0.5 h) came out at 4.2 µg/mL (≈ 9.05 µM); in data set [2] (FaSSIF, 2 h), 4.8 µg/mL (≈ 10.3 µM); in data set [2] (FaSSIF, 24 h), 4.3 µg/mL (≈ 9.27 µM); in data set [2] (FeSSIF, 0.5 h), 220 µg/mL (≈ 474 µM); in data set [2] (FeSSIF, 2 h) it was 180 µg/mL (≈ 388 µM); in data set [2] (FeSSIF, 24 h) it was 57 µg/mL (≈ 123 µM). Besides, the “Solubility” value is 120 µg/mL (≈ 259 µM) in data set [2] (SGF, 0.5 h); 63 µg/mL (≈ 136 µM) in data set [2] (SGF, 2 h); 46 µg/mL (≈ 99.2 µM) in data set [2] (SGF, 24 h). Moreover, the pH is recorded as 6.62 in data set [2] (FaSSIF, 0.5 h); 6.63 in data set [2] (FaSSIF, 2 h); 6.63 in data set [2] (FaSSIF, 24 h); 5.04 in data set [2] (FeSSIF, 0.5 h); 5.05 in data set [2] (FeSSIF, 2 h); 5.02 in data set [2] (FeSSIF, 24 h). Besides, the pH was determined as 1.24 in data set [2] (SGF, 0.5 h); 1.24 in data set [2] (SGF, 2 h); 1.23 in data set [2] (SGF, 24 h).

On to `CS(=O)(=O)O.O=C(Nc1ccc(OC(F)(F)Cl)cc1)c1cnc(N2CC[C@@H](F)C2)c(-c2cnccn2)c1` [crystal form I of compound A mesylate, (R)-N-(4-(chlorodifluoromethoxy)phenyl)-6-(3-fluoropyrrolidin-1-yl)-5-(pyrazin-2-yl)nicotinamide mesylate], for which the water absorption entry in data set [3] (0-80%RH) was “about 3.6%”. Further, the water absorption entry in data set [3] (0-90%RH) is “about 40.3%”. In data set [3], the “crystal form after DVS test (XRPD)” value is listed as “not changed” and the “hygroscopicity (DVS)” value was “hygroscopic”.

On to `O=C(Nc1ccc(OC(F)(F)Cl)cc1)c1cnc(N2CC[C@@H](F)C2)c(-c2cnccn2)c1` [the crystal form VI of compound A], for which the Appearance result is “Off-white powder” in data set [4] (0 day); “Off-white powder” in data set [4] (25° C./92.5%RH, 10 days); “Off-white powder” in data set [4] (25° C./92.5%RH, 30 days); “Off-white powder” in data set [4] (40° C./75%RH, 10 days); “Off-white powder” in data set [4] (40° C./75%RH, 30 days); “Off-white powder” in data set [4] (60° C., 10 days). For the same compound, the Appearance entry in data set [4] (60° C., 30 days) is “Off-white powder”; in data set [4] (Light, 10 days) it was “Off-white powder”. The Content is 99.40% in data set [4] (0 day); 98.40% in data set [4] (25° C./92.5%RH, 10 days); 98.80% in data set [4] (25° C./92.5%RH, 30 days); 98.40% in data set [4] (40° C./75%RH, 10 days); 101.40% in data set [4] (40° C./75%RH, 30 days); 99.90% in data set [4] (60° C., 10 days). For the same compound, the Content in data set [4] (60° C., 30 days) is 96.90%; in data set [4] (Light, 10 days), 99.70%. Further, the Crystal form entry in data set [4] (0 day) was “The crystal form VI”; in data set [4] (25° C./92.5%RH, 10 days), “The crystal form VI”; in data set [4] (25° C./92.5%RH, 30 days) it was “The crystal form VI”; in data set [4] (40° C./75%RH, 10 days) it was “The crystal form VI”; in data set [4] (40° C./75%RH, 30 days), “The crystal form VI”; in data set [4] (60° C., 10 days), “The crystal form VI”. Also, the Crystal form result in data set [4] (60° C., 30 days) is listed as “The crystal form VI”; in data set [4] (Light, 10 days), “The crystal form VI”. Further, the Impurity content is 0.87% in data set [4] (0 day); 0.80% in data set [4] (25° C./92.5%RH, 10 days); 0.85% in data set [4] (25° C./92.5%RH, 30 days); 0.79% in data set [4] (40° C./75%RH, 10 days); 0.80% in data set [4] (40° C./75%RH, 30 days); 0.81% in data set [4] (60° C., 10 days). Moreover, the Impurity content in data set [4] (60° C., 30 days) was 0.84%; in data set [4] (Light, 10 days), 0.85%. The Hygroscopic weight gain in data set [4] (25° C./92.5%RH, 10 days) is reported as 0.34%; in data set [4] (25° C./92.5%RH, 30 days), 2.72%; in data set [4] (40° C./75%RH, 10 days), 1.26%; in data set [4] (40° C./75%RH, 30 days), 1.26%.

For orientation: Solubility means the dissolved amount per volume that the medium holds. Low values mean little dissolved substance, high ones much dissolved substance.
